Test results taken from ChEMBL document CHEMBL5291721, “A preclinical secondary pharmacology resource illuminates target-adverse drug reaction associations of marketed drugs” (Nat Commun, 2023).

Columns and labels:
[1] = target: Prostaglandin G/H synthase 1 (Homo sapiens, UniProt P23219); type: functional
[2] = target: T1, Amine oxidase [flavin-containing] A (Homo sapiens, UniProt P21397); type: functional
T1 sequence (P21397 whole entry): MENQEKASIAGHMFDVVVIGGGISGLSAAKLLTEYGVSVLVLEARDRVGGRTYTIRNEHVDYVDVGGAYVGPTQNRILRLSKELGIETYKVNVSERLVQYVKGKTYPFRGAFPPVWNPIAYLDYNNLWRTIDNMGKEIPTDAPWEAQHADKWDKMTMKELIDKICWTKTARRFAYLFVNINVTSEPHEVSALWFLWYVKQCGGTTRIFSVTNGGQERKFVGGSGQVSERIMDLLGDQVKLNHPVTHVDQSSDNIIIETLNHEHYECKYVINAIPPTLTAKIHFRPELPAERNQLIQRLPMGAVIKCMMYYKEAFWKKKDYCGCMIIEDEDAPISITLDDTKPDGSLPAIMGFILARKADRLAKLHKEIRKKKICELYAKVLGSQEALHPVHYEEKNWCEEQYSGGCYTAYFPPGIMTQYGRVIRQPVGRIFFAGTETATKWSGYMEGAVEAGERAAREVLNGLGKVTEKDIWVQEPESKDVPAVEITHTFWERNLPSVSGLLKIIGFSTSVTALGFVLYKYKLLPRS

[3] = target: 3',5'-cyclic-AMP phosphodiesterase 4A (Homo sapiens, UniProt P27815); type: functional
Chain of 3',5'-cyclic-AMP phosphodiesterase 4A (P27815 whole entry): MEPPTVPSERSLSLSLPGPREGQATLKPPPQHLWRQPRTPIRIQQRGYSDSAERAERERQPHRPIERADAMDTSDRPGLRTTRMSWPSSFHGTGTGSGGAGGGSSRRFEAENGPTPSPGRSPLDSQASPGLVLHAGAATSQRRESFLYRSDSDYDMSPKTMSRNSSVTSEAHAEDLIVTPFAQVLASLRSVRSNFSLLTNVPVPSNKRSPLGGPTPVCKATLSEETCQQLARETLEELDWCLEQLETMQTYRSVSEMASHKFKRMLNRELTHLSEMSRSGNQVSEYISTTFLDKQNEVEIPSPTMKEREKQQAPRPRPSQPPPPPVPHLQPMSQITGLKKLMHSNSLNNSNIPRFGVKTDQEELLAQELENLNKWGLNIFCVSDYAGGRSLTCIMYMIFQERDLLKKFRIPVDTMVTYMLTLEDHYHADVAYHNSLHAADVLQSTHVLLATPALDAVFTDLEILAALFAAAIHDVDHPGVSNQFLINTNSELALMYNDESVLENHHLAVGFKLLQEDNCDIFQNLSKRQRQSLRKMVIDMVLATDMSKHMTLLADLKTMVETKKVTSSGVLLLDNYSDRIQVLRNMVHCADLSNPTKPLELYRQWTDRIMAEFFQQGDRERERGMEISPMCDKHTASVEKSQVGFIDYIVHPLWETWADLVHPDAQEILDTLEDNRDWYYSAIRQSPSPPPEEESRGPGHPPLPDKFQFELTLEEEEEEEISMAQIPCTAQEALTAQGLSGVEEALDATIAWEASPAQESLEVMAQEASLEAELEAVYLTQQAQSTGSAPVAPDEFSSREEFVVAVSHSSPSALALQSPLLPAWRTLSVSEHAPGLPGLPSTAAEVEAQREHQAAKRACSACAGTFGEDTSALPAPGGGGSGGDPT

[4] = target: T2, Muscarinic acetylcholine receptor M1 (Homo sapiens, UniProt P11229); type: functional, cell-based
T2 sequence (P11229 whole entry): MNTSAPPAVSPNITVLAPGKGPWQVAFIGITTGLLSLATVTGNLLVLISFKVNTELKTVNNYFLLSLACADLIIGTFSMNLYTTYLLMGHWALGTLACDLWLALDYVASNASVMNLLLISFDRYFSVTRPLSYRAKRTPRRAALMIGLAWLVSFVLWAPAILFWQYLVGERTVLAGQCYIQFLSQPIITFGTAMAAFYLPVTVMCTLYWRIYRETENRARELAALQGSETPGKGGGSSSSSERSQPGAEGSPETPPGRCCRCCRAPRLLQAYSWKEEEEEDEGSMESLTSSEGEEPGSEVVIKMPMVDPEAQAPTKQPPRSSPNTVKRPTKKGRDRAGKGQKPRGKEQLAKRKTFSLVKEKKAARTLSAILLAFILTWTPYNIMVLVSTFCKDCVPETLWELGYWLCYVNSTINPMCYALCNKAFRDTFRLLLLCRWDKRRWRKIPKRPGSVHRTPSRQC

Mu-type opioid receptor = Mu-type opioid receptor (Homo sapiens, UniProt P35372)
Chain of Mu-type opioid receptor (P35372 whole entry): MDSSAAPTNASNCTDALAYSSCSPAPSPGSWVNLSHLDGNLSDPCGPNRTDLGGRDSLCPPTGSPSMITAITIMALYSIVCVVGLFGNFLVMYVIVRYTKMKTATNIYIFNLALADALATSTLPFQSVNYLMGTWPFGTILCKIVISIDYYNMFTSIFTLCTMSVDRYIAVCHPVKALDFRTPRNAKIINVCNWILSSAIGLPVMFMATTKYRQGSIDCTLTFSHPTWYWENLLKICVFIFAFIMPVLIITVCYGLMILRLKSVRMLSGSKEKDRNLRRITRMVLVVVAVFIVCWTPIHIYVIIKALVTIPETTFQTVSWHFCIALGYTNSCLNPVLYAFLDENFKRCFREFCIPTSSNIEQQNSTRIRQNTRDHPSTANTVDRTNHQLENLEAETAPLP

Acetylcholinesterase = Acetylcholinesterase (Homo sapiens, UniProt P22303); type: functional
Chain of Acetylcholinesterase (P22303 whole entry): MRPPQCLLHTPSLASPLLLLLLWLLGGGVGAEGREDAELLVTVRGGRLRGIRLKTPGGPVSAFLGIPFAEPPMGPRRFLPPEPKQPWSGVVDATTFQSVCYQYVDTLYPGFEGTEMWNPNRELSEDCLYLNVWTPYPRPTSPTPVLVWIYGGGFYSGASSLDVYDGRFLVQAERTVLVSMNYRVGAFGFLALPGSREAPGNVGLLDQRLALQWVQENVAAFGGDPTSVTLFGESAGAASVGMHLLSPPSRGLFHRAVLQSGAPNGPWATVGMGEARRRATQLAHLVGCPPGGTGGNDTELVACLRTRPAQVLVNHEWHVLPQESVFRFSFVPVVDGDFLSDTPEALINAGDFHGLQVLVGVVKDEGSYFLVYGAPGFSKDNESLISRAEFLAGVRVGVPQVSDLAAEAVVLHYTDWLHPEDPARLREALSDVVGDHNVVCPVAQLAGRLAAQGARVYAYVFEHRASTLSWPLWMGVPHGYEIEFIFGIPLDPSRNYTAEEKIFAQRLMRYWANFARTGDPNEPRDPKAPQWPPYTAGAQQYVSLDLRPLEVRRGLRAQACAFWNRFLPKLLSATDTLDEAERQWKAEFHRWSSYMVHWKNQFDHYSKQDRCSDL

D(1A) dopamine receptor = D(1A) dopamine receptor (Homo sapiens, UniProt P21728)
Chain of D(1A) dopamine receptor (P21728 whole entry): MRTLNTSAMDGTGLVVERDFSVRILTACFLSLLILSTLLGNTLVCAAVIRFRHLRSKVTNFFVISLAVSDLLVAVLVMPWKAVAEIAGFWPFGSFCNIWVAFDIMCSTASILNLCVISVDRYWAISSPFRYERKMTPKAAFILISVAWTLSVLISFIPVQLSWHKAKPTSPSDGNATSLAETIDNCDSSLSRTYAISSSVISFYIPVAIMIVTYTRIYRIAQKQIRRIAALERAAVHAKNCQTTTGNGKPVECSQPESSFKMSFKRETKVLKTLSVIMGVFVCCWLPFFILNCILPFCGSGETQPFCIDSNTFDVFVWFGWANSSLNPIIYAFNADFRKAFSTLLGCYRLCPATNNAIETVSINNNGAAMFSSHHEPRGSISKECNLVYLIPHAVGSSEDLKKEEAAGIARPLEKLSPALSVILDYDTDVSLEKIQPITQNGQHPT

[5] = target: T3, Alpha-1A adrenergic receptor (Homo sapiens, UniProt P35348); type: functional, cell-based
T3 sequence (P35348 whole entry): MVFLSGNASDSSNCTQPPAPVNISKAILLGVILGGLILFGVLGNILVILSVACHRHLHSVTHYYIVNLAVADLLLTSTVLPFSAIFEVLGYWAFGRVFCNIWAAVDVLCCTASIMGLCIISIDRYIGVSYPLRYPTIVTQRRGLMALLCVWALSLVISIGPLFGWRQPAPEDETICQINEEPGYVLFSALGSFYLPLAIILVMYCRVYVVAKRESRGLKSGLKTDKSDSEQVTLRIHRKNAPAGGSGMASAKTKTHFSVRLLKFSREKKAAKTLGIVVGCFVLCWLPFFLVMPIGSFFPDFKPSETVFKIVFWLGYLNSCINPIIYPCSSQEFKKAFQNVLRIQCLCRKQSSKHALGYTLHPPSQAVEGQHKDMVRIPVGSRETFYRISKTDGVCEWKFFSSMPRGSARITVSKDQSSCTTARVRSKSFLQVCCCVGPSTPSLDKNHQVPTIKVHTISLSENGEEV

[6] = target: T4, Muscarinic acetylcholine receptor M2 (Homo sapiens, UniProt P08172)
T4 sequence (P08172 whole entry): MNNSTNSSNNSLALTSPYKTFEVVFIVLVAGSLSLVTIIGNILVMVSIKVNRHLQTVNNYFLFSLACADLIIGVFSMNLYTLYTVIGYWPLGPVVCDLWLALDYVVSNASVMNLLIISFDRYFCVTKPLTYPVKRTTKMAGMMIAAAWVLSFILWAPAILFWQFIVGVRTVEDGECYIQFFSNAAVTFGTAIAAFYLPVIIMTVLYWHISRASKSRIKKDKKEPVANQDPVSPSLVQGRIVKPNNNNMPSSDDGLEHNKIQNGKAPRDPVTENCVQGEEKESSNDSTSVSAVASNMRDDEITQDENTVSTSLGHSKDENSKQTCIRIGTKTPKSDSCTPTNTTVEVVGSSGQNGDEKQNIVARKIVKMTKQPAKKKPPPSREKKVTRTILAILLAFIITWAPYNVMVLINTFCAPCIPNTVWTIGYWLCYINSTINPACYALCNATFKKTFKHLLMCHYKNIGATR

[7] = target: Sodium-dependent noradrenaline transporter (Homo sapiens, UniProt P23975)
Chain of Sodium-dependent noradrenaline transporter (P23975 whole entry): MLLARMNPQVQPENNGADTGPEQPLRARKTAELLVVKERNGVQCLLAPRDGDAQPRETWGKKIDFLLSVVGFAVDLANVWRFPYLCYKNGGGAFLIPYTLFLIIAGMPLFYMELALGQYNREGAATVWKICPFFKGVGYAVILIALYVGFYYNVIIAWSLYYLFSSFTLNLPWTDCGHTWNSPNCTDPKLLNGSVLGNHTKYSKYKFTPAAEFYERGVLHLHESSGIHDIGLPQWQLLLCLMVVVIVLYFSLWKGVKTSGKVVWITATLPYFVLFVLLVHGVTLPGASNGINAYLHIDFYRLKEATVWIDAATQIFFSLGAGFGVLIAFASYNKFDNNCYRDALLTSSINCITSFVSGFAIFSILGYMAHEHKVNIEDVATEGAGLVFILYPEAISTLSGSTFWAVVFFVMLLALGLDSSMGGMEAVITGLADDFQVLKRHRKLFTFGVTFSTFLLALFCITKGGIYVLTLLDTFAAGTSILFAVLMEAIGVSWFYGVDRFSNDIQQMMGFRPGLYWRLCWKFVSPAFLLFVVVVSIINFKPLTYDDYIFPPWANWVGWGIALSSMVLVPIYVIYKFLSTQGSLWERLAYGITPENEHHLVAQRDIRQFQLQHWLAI

Prothrombin = Prothrombin (Homo sapiens, UniProt P00734); type: functional
Cannabinoid receptor 1 = Cannabinoid receptor 1 (Homo sapiens, UniProt P21554); type: functional, cell-based
Chain of Cannabinoid receptor 1 (P21554 whole entry): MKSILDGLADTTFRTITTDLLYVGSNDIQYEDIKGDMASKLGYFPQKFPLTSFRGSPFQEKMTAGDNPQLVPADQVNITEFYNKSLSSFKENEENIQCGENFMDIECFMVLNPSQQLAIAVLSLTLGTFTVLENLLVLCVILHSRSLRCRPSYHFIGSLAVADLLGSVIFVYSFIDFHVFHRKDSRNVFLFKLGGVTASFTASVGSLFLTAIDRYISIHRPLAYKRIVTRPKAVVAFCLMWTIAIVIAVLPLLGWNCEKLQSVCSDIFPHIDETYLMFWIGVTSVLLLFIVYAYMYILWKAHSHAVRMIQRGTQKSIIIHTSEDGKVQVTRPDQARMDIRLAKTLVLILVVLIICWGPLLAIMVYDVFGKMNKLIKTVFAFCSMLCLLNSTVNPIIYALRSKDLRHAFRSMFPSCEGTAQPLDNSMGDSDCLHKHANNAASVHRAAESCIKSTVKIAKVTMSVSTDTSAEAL

Adenosine receptor A3 = target: T5, Adenosine receptor A3 (Homo sapiens, UniProt P0DMS8)
T5 sequence (P0DMS8 whole entry): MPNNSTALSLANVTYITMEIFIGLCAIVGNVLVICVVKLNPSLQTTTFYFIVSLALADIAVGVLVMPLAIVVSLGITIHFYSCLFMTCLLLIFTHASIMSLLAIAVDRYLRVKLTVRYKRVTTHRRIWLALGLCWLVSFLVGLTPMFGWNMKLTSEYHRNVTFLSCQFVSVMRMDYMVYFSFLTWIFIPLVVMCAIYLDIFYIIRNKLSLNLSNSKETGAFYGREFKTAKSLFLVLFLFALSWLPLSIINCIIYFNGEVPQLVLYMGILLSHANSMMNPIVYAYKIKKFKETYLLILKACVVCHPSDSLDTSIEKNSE
Also: assay procedure not described here.

Chain of Prostaglandin G/H synthase 1 (P23219 whole entry): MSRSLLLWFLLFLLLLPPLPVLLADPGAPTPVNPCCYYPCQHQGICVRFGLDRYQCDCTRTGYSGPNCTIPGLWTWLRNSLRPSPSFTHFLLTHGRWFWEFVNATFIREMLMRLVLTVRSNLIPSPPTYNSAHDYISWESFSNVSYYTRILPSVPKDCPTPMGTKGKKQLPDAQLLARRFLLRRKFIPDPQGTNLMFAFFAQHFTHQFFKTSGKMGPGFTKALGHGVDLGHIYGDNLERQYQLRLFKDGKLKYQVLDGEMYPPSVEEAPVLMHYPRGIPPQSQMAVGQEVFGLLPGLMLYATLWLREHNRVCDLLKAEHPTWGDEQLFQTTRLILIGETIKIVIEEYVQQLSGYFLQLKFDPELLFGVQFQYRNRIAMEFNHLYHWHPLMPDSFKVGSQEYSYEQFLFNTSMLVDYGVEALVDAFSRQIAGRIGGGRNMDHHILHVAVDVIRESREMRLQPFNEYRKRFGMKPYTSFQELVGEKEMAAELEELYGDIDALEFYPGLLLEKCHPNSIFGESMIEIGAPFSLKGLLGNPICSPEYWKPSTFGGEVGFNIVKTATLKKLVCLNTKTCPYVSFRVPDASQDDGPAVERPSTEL

| SMILES | AC50 [1] [µM] | AC50 [2] [µM] | AC50 [3] [µM] | AC50 [4] [µM] | AC50 (Mu-type opioid receptor) [µM] | AC50 (Acetylcholinesterase) [µM] | AC50 (D(1A) dopamine receptor) [µM] | AC50 [5] [µM] | AC50 [6] [µM] | AC50 [7] [µM] | AC50 (Prothrombin) [µM] | AC50 (Cannabinoid receptor 1) [µM] | AC50 (Adenosine receptor A3) [µM] |
| --- | --- | --- | --- | --- | --- | --- | --- | --- | --- | --- | --- | --- | --- |
| Cc1cc(=O)oc2cc(O)ccc12 [HYMECROMONE] | > 30 | > 30 | > 30 | > 30 | > 30 | > 30 | > 30 | > 30 | > 30 | > 30 | > 3 | – | – |
| C[Se]CC[C@H](N)C(=O)O [SELENOMETHIONINE] | > 30 | > 30 | > 30 | > 30 | > 30 | > 30 | > 30 | > 30 | > 30 | > 30 | > 30 | – | – |
| Nc1cccc2c1C(=O)N(C1CCC(=O)NC1=O)C2=O (stereo not drawn) [POMALIDOMIDE] | > 30 | > 30 | > 30 | > 30 | > 30 | > 30 | > 30 | > 30 | > 30 | > 30 | > 30 | – | – |
| COc1cc(C(C)=O)ccc1OCCCN1CCC(c2noc3cc(F)ccc23)CC1 [ILOPERIDONE] | > 30 | > 30 | > 30 | > 10 | 4.11 | 15.9 | 0.01 | > 10 | 2.18 | 1.19 | > 30 | > 30 | > 30 |
| O=C(O)CN(CCN(CC(=O)O)CC(=O)O)CCN(CC(=O)O)CC(=O)O [PENTETIC ACID] | > 30 | > 30 | > 30 | > 30 | > 30 | > 30 | 8.71 | > 30 | 3.91 | 10.9 | > 30 | – | – |
| CC[C@@H]1C[C@]1(NC(=O)[C@@H]1C[C@@H]2CN1C(=O)[C@H](C(C)(C)C)NC(=O)OCC(C)(C)CCCCc1cccc3c1CN(C3)C(=O)O2)C(=O)NS(=O)(=O)C1CC1 | 26.8 | > 30 | > 30 | > 3 | > 30 | > 30 | > 30 | 29.7 | > 30 | > 30 | > 30 | – | – |
